# Results published in publication PMC7948455, “Novel drug discovery platform for spinocerebellar ataxia, using fluorescence technology targeting β-III-spectrin” (The Journal of Biological Chemistry, 2020).
# Entries after “also recorded” stand apart in the source; their conditions may differ. Like-named read-outs stand apart in the source and are kept apart here.
# Assays:
# HEK293-6E cells = assay: Trypan blue cell viability assay; type: cell-based
# Method: HEK293-6E cell viability was measured using trypan blue (0.03%) staining and a Countess Automated Cell counter (Invitrogen). Nontransfected HEK293-6E cells were spun at 100g for 5 min at 21 °C and resuspended in 10 ml of PBS. The centrifugation and resuspension were repeated twice more. Final cell concentration was 1 × 10^6 cells/ml. Cells were incubated with 2% DMSO or 3 to 50 μM compound (as indicated) for 3 h at room temperature (21 °C). After addition of 100 μl of 0.06% trypan blue solution in PBS, 10 μl was loaded on a slide and injected into the cell counter, and cell viability was measured.
# [1] = target: T1, binding of the mutant β-III-spectrin L253P ABD to F-actin (Homo sapiens, UniProt O15020, L253P); assay: Primary live-cell FRET assay (GFP-ABD-L253P + Lifeact-mCherry) in HEK293-6E cells; type: cell-based; details: for Effect of Hit compound on primary FRET: LOPAC Hits (10 μM screen, 4SD threshold, 120 min) and dose response; for Shift of FRET: 10 μM
# T1 construct: the β-III-spectrin (human) ABD residues 1 to 284; expressed in transfected cells; host or cells: HEK293-6E (pTT5 vector, transient transfection)
# T1 sequence (O15020 1-284 L253P): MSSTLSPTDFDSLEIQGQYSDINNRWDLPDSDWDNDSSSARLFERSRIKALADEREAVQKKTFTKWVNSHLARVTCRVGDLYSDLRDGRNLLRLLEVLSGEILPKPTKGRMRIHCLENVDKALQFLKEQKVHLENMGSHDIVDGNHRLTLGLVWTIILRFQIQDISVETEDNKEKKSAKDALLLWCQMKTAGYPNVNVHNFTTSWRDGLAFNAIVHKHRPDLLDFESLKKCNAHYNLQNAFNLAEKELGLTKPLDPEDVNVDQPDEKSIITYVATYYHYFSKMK
# Method: To develop a biosensor that monitors the binding of mutant L253P β-III-spectrin to actin filaments in live cells, a FRET approach was tested. A FRET donor construct consisting of green fluorescent protein fused to the N terminus of the mutant ABD (GFP-ABD-L253P) was coexpressed in HEK293-EBNA1-6E (HEK293-6E) cells with a FRET acceptor construct consisting of the actin-binding peptide, Lifeact, fused to the N terminus of red fluorescent protein, mCherry (Lifeact-mCherry). Lifeact is a 17 amino acid peptide derived from the yeast actin-binding protein, ABP140 ([15]). […] The cryo-EM structures of ABD L253P and Lifeact on actin indicate that the binding sites overlap on actin units. With ABD L253P and Lifeact bound on neighboring actin units, we predicted an average distance of ∼80 Å between GFP and mCherry (Fig. 1). With a known Förster distance R0 of 52.4 Å ([17]), this corresponds to FRET value of 0.07, a sufficient signal for a biosensor platform. To design a system most compatible for large production and eventual screening of 50,000+ compound libraries, we used HEK293-6E cells, a suspension cell line that yields greater levels (>threefold) of recombinant protein expression ([18], [19]).
# With a constant amount of GFP-ABD-L253P expressed, increased Lifeact-mCherry expression increases FRET with an exponential plateau to 0.12 (Fig. 2A). To measure the nonspecific component of our FRET readout, we concurrently tested expression of mCherry in place of Lifeact-mCherry. For comparison, the Lifeact-mCherry and mCherry fluorescence intensity values (normalized to 1:1 GFP-ABD:Lifeact-mCherry sample) are plotted on the X-axis for samples transfected with different donor-to-acceptor DNA ratios. […] With the trade-off between high FRET and minimal nonspecific FRET, the donor:acceptor ratio 1:2 was chosen for the experiments that followed (Fig. 2A). […] Of note, we also tested the biosensor using WT-ABD, which yielded substantially lower FRET (Fig. S1), consistent with the 1000-fold decrease in affinity of WT-ABD for actin ([10]). We proceeded to test the compatibility of the GFP-ABD-L253P and Lifeact-mCherry assay for primary compound screening and the GFP-ABD-L253P and mCherry assay as a potential high-throughput counter screen.
# To test the performance of the assay in HTS, the 1280 LOPAC compounds, together with 256 DMSO controls, were dispensed in 5 nl volumes into individual wells of 1536-well microplates and stored at −20 °C until use. To test the reproducibility of replicate screens on the same day, a single batch of HEK293 cells was transfected with GFP-ABD-L253P and Lifeact-mCherry. In addition, control cells were transfected with only GFP-ABD-L253P, to determine compound effect on donor-only lifetime (τD). To test reproducibility of the screens across different days, identical transfections were performed on another batch of HEK293-6E cells on a second day. Following plate thaw, 5 μl of assay cells were loaded in each well via a multidrop liquid dispenser, and a time course of compound effects (at 20, 120, and 180 min post load) on fluorescence lifetime was acquired using a fluorescence lifetime plate reader (FLT-PR). This technology has been advanced to high-density 1536-well plates in recent years for successful HTS using a range of protein biosensors including sarcoplasmic reticulum Ca-ATPase ([24], [25], [26], [27]), ryanodine receptor ([23], [28]), actin ([20]), tumor necrosis factor receptor 1 ([29], [30]), and tau ([31]).
# At 2 × 10^6 cells/ml, HEK293-6E cells were transfected with GFP-ABD-L253P or GFP-ABD-WT (2.4 μg), Lifeact-mCherry (2.4–16.8 μg), mCherry (1.2–16.8 μg), and/or pTT5 (0.8–17.6 μg), as indicated, using the 293fectin protocol (Thermo Fisher Scientific) with 20 μg total DNA. Cells were transfected with either GFP-ABD-L253P or –WT, but coexpression of the WT and mutant isoform was not explored in this study. The cells were harvested 24 h later by centrifugation at 100g for 5 min and then washed twice with PBS. […]
# [2] = 10 μM Hit compound, 3 h incubation
Compound,Effect on HEK293-6E cell viability (HEK293-6E cells; [2]),Effect of Hit compound on primary FRET [1],Shift of FRET [1],"Effect on HEK293-6E cell viability (HEK293-6E cells; 3 μM swinholide A, 50 μM tegaserod, 3 h)","Reduction of Total FRET in primary FRET assay ([1]; 1 μM swinholide A, relative to DMSO)","EC50 ([1]; Plate A, 1536-well, read-out: EC50 of specific FRET dose response)","EC50 ([1]; Plate B, 1536-well, read-out: EC50 of specific FRET dose response)","EC50 ([1]; Plate C, 1536-well, read-out: EC50 of specific FRET dose response)","Reduction in FRET (Fig. 2B) ([1]; swinholide A (3 μM in Fig. 2B legend), relative to DMSO, n = 3)","EC50 ([1]; triplicate 12-point concentration response, 1536-well plates, read-out: EC50 of FRET reduction, average)"
O=C(O)c1cc([N+](=O)[O-])ccc1NCCCc1ccccc1 [NPPB],do not significantly alter,decrease FRET,–,–,–,–,–,–,–,–
CCOc1nc2cccc(C(=O)O)c2n1Cc1ccc(-c2ccccc2-c2nnn[nH]2)cc1 [candesartan],do not significantly alter,decrease FRET,2 to 14%,–,–,–,–,–,–,–
CO[C@H]1C[C@H](CC[C@H](C)[C@H](O)[C@H](C)[C@H]2OC(=O)/C=C/C(C)=C/C[C@H](O)C[C@@H]3C=CC[C@@H](C[C@H](OC)[C@@H](C)[C@@H](O)C[C@@H](O)[C@H](C)[C@@H]([C@@H](C)[C@@H](O)[C@@H](C)CC[C@H]4C[C@H](OC)C[C@H](C)O4)OC(=O)/C=C/C(C)=C/C[C@H](O)C[C@@H]4C=CC[C@@H](C[C@H](OC)[C@@H](C)[C@@H](O)C[C@@H](O)[C@@H]2C)O4)O3)O[C@@H](C)C1 [swinholide A],–,–,–,did not significantly alter,> 50%,241 nM,284 nM,267 nM,56 ± 7%,264 nM
CC(C)(C)c1ccc(/C=C/C(=O)Nc2ccc3c(c2)OCCO3)cc1 [AMG 9810],do not significantly alter,decrease FRET,2 to 14%,–,–,–,–,–,–,–
CCCCCCCC/C=C\CCCCCCCC(=O)NCc1ccc(O)c(OC)c1 [olvanil],do not significantly alter,decrease FRET; also recorded: subtly reduced,2 to 14%,–,–,–,–,–,–,–
